Reference: patent US20240285634A1, “COMPOUND AND METHOD FOR TREATING CHEMOTHERAPY-ASSOCIATED GASTROINTESTINAL SIDE EFFECTS” (ONQUALITY PHARMACEUTICALS CHINA LTD., priority 2021, published 2024)

Key:
[1] = system: Chemotherapeutic agent-caused diarrhea models of Balb/c mice; experiment: Relieving effect on diarrhea caused by a chemotherapeutic agent (Examples 1-201); assay type: in vivo
Excerpt: Construction of mouse animal models: Chemotherapeutic agent-caused diarrhea models of Balb/c mice were constructed according to the administration mode and frequency of the chemotherapeutic agent as shown in Table 3. After administration for several days, mice developed different extents of diarrhea symptoms (as shown in FIG. 1), which were similar to the conditions in human. Thus, chemotherapeutic agent-caused diarrhea models of mice are very good models to mimic diarrhea in human caused by the chemotherapeutic agent.
Balb/c mice were fed for 1 week, and then divided into groups. The experiment was divided into a control group, a chemotherapeutic agent group, and a group of the compound as shown in Formula I, each of which comprised 10 mice, to perform the administration experiment, for which the administration dosage, mode, time and frequency were shown in Table 3. The control group: being injected or intragastrically administered with the same solvent as that used in the group of the compound as shown in Formula I (the injection mode and time were shown in Table 3), and then being injected or intragastrically administered with the same solvent as that used in the chemotherapeutic agent group (the administration mode was shown in Table 3); the chemotherapeutic agent group: being injected or intragastrically administered with the same solvent as that used in the group of the compound as shown in Formula I (the administration mode and time were shown in Table 3), and then being injected or intragastrically administered with the chemotherapeutic agent (the type, administration mode and dosage were shown in Table 3); the group of the compound as shown in Formula I: being injected or intragastrically administered with the compound as shown in Formula I (the administration mode and time were shown in Table 3), and then being administered with the chemotherapeutic agent (the administration mode and dosage were shown in Table 3).
(§1) The scoring of diarrhea can refer to the method of Akinobu Kurita (Cancer Chemother Pharmacol 2000; 46:211-20.), Grade 0: normal feces; Grade 1: mild diarrhea, the stools is slightly wet and soft; Grade 2: moderate diarrhea, loose stools and mild perianal contamination; Grade 3: severe diarrhea, watery stools and accompanied by severe perianal staining (see FIG. 1). It is regarded as effective remission when the diarrhea grading of mice in the group of the compound as shown in Formula I is reduced compared with the average diarrhea grading of mice in the chemotherapeutic agent group.
(§2) The diarrhea grading of mice was observed and recorded every day. At the end of the experiment, the number of mice in the group of the compound as shown in Formula I whose diarrhea grading was lower than that of mice in the chemotherapeutic agent group was recorded. Table 3 lists various animal experiment combinations of chemotherapeutic agents and the compound as shown in Formula I, as well as the corresponding experimental results. (Relative remission rate %=the number of mice in the group of the compound as shown in Formula I whose diarrhea has been effectively relieved/the total number of mice in the group of the compound as shown in Formula I*100%. The establishment rate of diarrhea model in the chemotherapeutic agent group was 50%-70%, that is, about 5-7 of 10 mice developed diarrhea during the experiment, and there were cases of individual mice death or not developing diarrhea.)

[2] = system: Balb/c mice, diarrhea caused by continuous administration of a chemotherapeutic agent; experiment: Relieving effect on diarrhea caused by the continuous administration of a chemotherapeutic agent (Examples 365-384); assay type: in vivo
Excerpt: Balb/c mice were fed for 1 week, and then divided into groups. The experiment was divided into a control group, a chemotherapeutic agent group, and a group of the compound as shown in Formula I, each of which comprised 10 mice, to perform the administration experiment, for which the administration dosage, mode, time and frequency were shown in Table 5. The control group: being injected or intragastrically administered with the same solvent as that used in the group of the compound as shown in Formula I (the administration mode and time were shown in Table 5), and then being injected or intragastrically administered with the same solvent as that used in the chemotherapeutic agent group (the administration mode was shown in Table 5); the chemotherapeutic agent group: being injected or intragastrically administered with the same solvent as that used in the group of the compound as shown in Formula I (the administration mode and time were shown in Table 5), and then being injected or intragastrically administered with the chemotherapeutic agent (the type, administration mode, time and dosage were shown in Table 5); the group of the compound as shown in Formula I: being injected or intragastrically administered with the compound as shown in Formula I (the administration mode and time were shown in Table 5), and then being administered with the chemotherapeutic agent (the type, administration mode, time and dosage were shown in Table 5).
as §1, with “0):” for “0:”
as §2, with “5” for “3”, “50%-80%,” for “50%-70%,”, “5-8” for “5-7”

CN1CCN(c2ccc(Nc3ncc4cc5n(c4n3)C3(CCCCC3)CNC5=O)nc2)CC1 [Compound I, Trilaciclib]
30%: Relative remission rate ([1]; Ex 131, Fluorouracil 100 + irinotecan 200 mg/kg intraperitoneal single, compound 150 mg/kg oral single 24 h before, cycle 8 days) | Relative remission rate ([1]; Ex 147, Fluorouracil 50 + oxaliplatin 5 + irinotecan 50 + tetrahydrofolic acid 90 mg/kg intravenous single, compound 100 mg/kg intravenous single 3 h before, cycle 10 days) | Relative remission rate ([1]; Ex 150, Fluorouracil 50 + oxaliplatin 5 + irinotecan 50 + tetrahydrofolic acid 90 mg/kg intravenous single, compound 100 mg/kg intravenous single 8 h before, cycle 10 days) | Relative remission rate ([1]; Ex 151, Fluorouracil 50 + oxaliplatin 5 + irinotecan 50 + tetrahydrofolic acid 90 mg/kg intravenous single, compound 100 mg/kg intravenous single 10 h before, cycle 10 days) | Relative remission rate ([1]; Ex 152, Fluorouracil 50 + oxaliplatin 5 + irinotecan 50 + tetrahydrofolic acid 90 mg/kg intravenous single, compound 100 mg/kg intravenous single 12 h before, cycle 10 days) | Relative remission rate ([1]; Ex 157, Fluorouracil 50 + oxaliplatin 5 + irinotecan 50 + tetrahydrofolic acid 90 mg/kg intravenous single, compound 100 mg/kg intravenous single 24 h before, cycle 10 days) | Relative remission rate ([1]; Ex 192, Fluorouracil 100 + oxaliplatin 10 + irinotecan 200 + tetrahydrofolic acid 100 mg/kg oral single, compound 100 mg/kg subcutaneous single 4 h before, cycle 7 days) | Relative remission rate ([1]; Ex 193, Fluorouracil 100 + oxaliplatin 10 + irinotecan 200 + tetrahydrofolic acid 100 mg/kg oral single, compound 100 mg/kg subcutaneous single 6 h before, cycle 7 days) | Relative remission rate (%) ([2]; Example 367, Fluorouracil (5-Fu) intraperitoneal injection 70 mg/kg once a day, for 3 days, compound intravenous injection 100 mg/kg once a day, for 3 days, 6 h before chemotherapeutic agent, cycle 10 days) | Relative remission rate (%) ([2]; Example 370, Fluorouracil (5-Fu) intraperitoneal injection 70 mg/kg once a day, for 5 days, compound intraperitoneal injection 100 mg/kg once a day, for 5 days, 4 h before chemotherapeutic agent, cycle 9 days)
60%: Relative remission rate ([1]; Ex 155, Fluorouracil 50 + oxaliplatin 5 + irinotecan 50 + tetrahydrofolic acid 90 mg/kg intravenous single, compound 100 mg/kg intravenous single 18 h before, cycle 10 days) | Relative remission rate ([1]; Ex 156, Fluorouracil 50 + oxaliplatin 5 + irinotecan 50 + tetrahydrofolic acid 90 mg/kg intravenous single, compound 100 mg/kg intravenous single 20 h before, cycle 10 days) | Relative remission rate ([1]; Ex 164, Fluorouracil 50 + oxaliplatin 5 + irinotecan 50 + tetrahydrofolic acid 90 mg/kg intraperitoneal single, compound 150 mg/kg oral single 4 h before, cycle 7 days) | Relative remission rate ([1]; Ex 169, Fluorouracil 50 + oxaliplatin 5 + irinotecan 50 + tetrahydrofolic acid 90 mg/kg intraperitoneal single, compound 150 mg/kg oral single 4 h before, cycle 7 days) | Relative remission rate ([1]; Ex 190, Fluorouracil 100 + oxaliplatin 10 + irinotecan 200 + tetrahydrofolic acid 100 mg/kg oral single, compound 100 mg/kg subcutaneous single 1 h before, cycle 7 days) | Relative remission rate (%) ([2]; Example 365, Fluorouracil (5-Fu) intraperitoneal injection 70 mg/kg once a day, for 3 days, compound intravenous injection 100 mg/kg once a day, for 3 days, 2 h before chemotherapeutic agent, cycle 10 days)
0%: Relative remission rate ([1]; Ex 143, Fluorouracil 50 + oxaliplatin 5 + irinotecan 50 mg/kg intraperitoneal single, compound 100 mg/kg intraperitoneal single 48 h before, cycle 10 days) | Relative remission rate ([1]; Ex 158, Fluorouracil 50 + oxaliplatin 5 + irinotecan 50 + tetrahydrofolic acid 90 mg/kg intravenous single, compound 100 mg/kg intravenous single 48 h before, cycle 10 days)
significant: relieving effects on diarrhea ([2]; continuous administration of the chemotherapeutic agent for less than 7 days)
have relieving effects: relieving effects on diarrhea ([2]; continuous administration of the chemotherapeutic agent for 7 days or less)
40%: Relative remission rate ([1]; Ex 139, Fluorouracil 50 + oxaliplatin 5 + irinotecan 50 mg/kg intraperitoneal single, compound 100 mg/kg intraperitoneal single 4 h before, cycle 10 days) | Relative remission rate ([1]; Ex 140, Fluorouracil 50 + oxaliplatin 5 + irinotecan 50 mg/kg intraperitoneal single, compound 100 mg/kg intraperitoneal single 8 h before, cycle 10 days) | Relative remission rate ([1]; Ex 145, Fluorouracil 50 + oxaliplatin 5 + irinotecan 50 + tetrahydrofolic acid 90 mg/kg intravenous single, compound 100 mg/kg intravenous single 1 h before, cycle 10 days) | Relative remission rate ([1]; Ex 146, Fluorouracil 50 + oxaliplatin 5 + irinotecan 50 + tetrahydrofolic acid 90 mg/kg intravenous single, compound 100 mg/kg intravenous single 2 h before, cycle 10 days) | Relative remission rate ([1]; Ex 148, Fluorouracil 50 + oxaliplatin 5 + irinotecan 50 + tetrahydrofolic acid 90 mg/kg intravenous single, compound 100 mg/kg intravenous single 4 h before, cycle 10 days) | Relative remission rate ([1]; Ex 149, Fluorouracil 50 + oxaliplatin 5 + irinotecan 50 + tetrahydrofolic acid 90 mg/kg intravenous single, compound 100 mg/kg intravenous single 6 h before, cycle 10 days) | Relative remission rate ([1]; Ex 163, Fluorouracil 50 + oxaliplatin 5 + irinotecan 50 + tetrahydrofolic acid 90 mg/kg intraperitoneal single, compound 150 mg/kg oral single 0.5 h before, cycle 7 days) | Relative remission rate ([1]; Ex 166, Fluorouracil 50 + oxaliplatin 5 + irinotecan 50 + tetrahydrofolic acid 90 mg/kg intraperitoneal single, compound 150 mg/kg oral single 12 h before, cycle 7 days) | Relative remission rate ([1]; Ex 168, Fluorouracil 50 + oxaliplatin 5 + irinotecan 50 + tetrahydrofolic acid 90 mg/kg intraperitoneal single, compound 150 mg/kg oral single 0.5 h before, cycle 7 days) | Relative remission rate ([1]; Ex 171, Fluorouracil 50 + oxaliplatin 5 + irinotecan 50 + tetrahydrofolic acid 90 mg/kg intraperitoneal single, compound 150 mg/kg oral single 12 h before, cycle 7 days) | Relative remission rate (%) ([2]; Example 366, Fluorouracil (5-Fu) intraperitoneal injection 70 mg/kg once a day, for 3 days, compound intravenous injection 100 mg/kg once a day, for 3 days, 4 h before chemotherapeutic agent, cycle 10 days)
50%: Relative remission rate ([1]; Ex 138, Fluorouracil 50 + oxaliplatin 5 + irinotecan 50 mg/kg intraperitoneal single, compound 100 mg/kg intraperitoneal single 0.5 h before, cycle 10 days) | Relative remission rate ([1]; Ex 141, Fluorouracil 50 + oxaliplatin 5 + irinotecan 50 mg/kg intraperitoneal single, compound 100 mg/kg intraperitoneal single 12 h before, cycle 10 days) | Relative remission rate ([1]; Ex 142, Fluorouracil 50 + oxaliplatin 5 + irinotecan 50 mg/kg intraperitoneal single, compound 100 mg/kg intraperitoneal single 24 h before, cycle 10 days) | Relative remission rate ([1]; Ex 144, Fluorouracil 50 + oxaliplatin 5 + irinotecan 50 + tetrahydrofolic acid 90 mg/kg intravenous single, compound 100 mg/kg intravenous single 0.5 h before, cycle 10 days) | Relative remission rate ([1]; Ex 153, Fluorouracil 50 + oxaliplatin 5 + irinotecan 50 + tetrahydrofolic acid 90 mg/kg intravenous single, compound 100 mg/kg intravenous single 14 h before, cycle 10 days) | Relative remission rate ([1]; Ex 154, Fluorouracil 50 + oxaliplatin 5 + irinotecan 50 + tetrahydrofolic acid 90 mg/kg intravenous single, compound 100 mg/kg intravenous single 16 h before, cycle 10 days) | Relative remission rate ([1]; Ex 159, Fluorouracil 50 + oxaliplatin 5 + irinotecan 50 + tetrahydrofolic acid 90 mg/kg intraperitoneal single, compound 100 mg/kg intraperitoneal single 0.5 h before, cycle 7 days) | Relative remission rate ([1]; Ex 191, Fluorouracil 100 + oxaliplatin 10 + irinotecan 200 + tetrahydrofolic acid 100 mg/kg oral single, compound 100 mg/kg subcutaneous single 2 h before, cycle 7 days) | Relative remission rate ([1]; Ex 196, Gemcitabine (GEM) 120 mg/kg intraperitoneal single, compound 100 mg/kg oral single 12 h before, cycle 8 days) | Relative remission rate (%) ([2]; Example 369, Fluorouracil (5-Fu) intraperitoneal injection 70 mg/kg once a day, for 5 days, compound intraperitoneal injection 100 mg/kg once a day, for 5 days, 2 h before chemotherapeutic agent, cycle 9 days) | Relative remission rate (%) ([2]; Example 383, Fluorouracil (5-Fu) intravenous injection 70 mg/kg once a day for 3 days, compound oral administration 100 mg/kg once a day, for 3 days, 6 h before chemotherapeutic agent, cycle 8 days)
10%: Relative remission rate (%) ([2]; Example 372, Fluorouracil (5-Fu) intraperitoneal injection 70 mg/kg once a day, for 5 days, compound intraperitoneal injection 100 mg/kg once a day, for 5 days, 8 h before chemotherapeutic agent, cycle 9 days) | Relative remission rate (%) ([2]; Example 376, Fluorouracil (5-Fu) intraperitoneal injection 70 mg/kg once a day, for 7 days, compound intraperitoneal injection 125 mg/kg once a day, for 7 days, 2 h before chemotherapeutic agent, cycle 10 days)
80%: Relative remission rate ([1]; Ex 165, Fluorouracil 50 + oxaliplatin 5 + irinotecan 50 + tetrahydrofolic acid 90 mg/kg intraperitoneal single, compound 150 mg/kg oral single 8 h before, cycle 7 days) | Relative remission rate ([1]; Ex 170, Fluorouracil 50 + oxaliplatin 5 + irinotecan 50 + tetrahydrofolic acid 90 mg/kg intraperitoneal single, compound 150 mg/kg oral single 8 h before, cycle 7 days)
Ineffective: Relative remission rate (%) ([2]; Example 384, Fluorouracil (5-Fu) oral administration 50 mg/kg once a day, for 14 days, compound intraperitoneal injection 100 mg/kg once a day, for 14 days, 8 h before chemotherapeutic agent, cycle 14 days)
relieved to different degrees: diarrhea gradings compared with the chemotherapeutic agent group ([1]; administered before the chemotherapeutic agent, Table 3 and FIG. 2)
20%: Relative remission rate ([1]; Ex 160, Fluorouracil 50 + oxaliplatin 5 + irinotecan 50 + tetrahydrofolic acid 90 mg/kg intraperitoneal single, compound 100 mg/kg intraperitoneal single 24 h before, cycle 7 days) | Relative remission rate ([1]; Ex 167, Fluorouracil 50 + oxaliplatin 5 + irinotecan 50 + tetrahydrofolic acid 90 mg/kg intraperitoneal single, compound 150 mg/kg oral single 24 h before, cycle 7 days) | Relative remission rate ([1]; Ex 172, Fluorouracil 50 + oxaliplatin 5 + irinotecan 50 + tetrahydrofolic acid 90 mg/kg intraperitoneal single, compound 150 mg/kg oral single 24 h before, cycle 7 days) | Relative remission rate (%) ([2]; Example 368, Fluorouracil (5-Fu) intraperitoneal injection 70 mg/kg once a day, for 3 days, compound intravenous injection 100 mg/kg once a day, for 3 days, 8 h before chemotherapeutic agent, cycle 10 days) | Relative remission rate (%) ([2]; Example 371, Fluorouracil (5-Fu) intraperitoneal injection 70 mg/kg once a day, for 5 days, compound intraperitoneal injection 100 mg/kg once a day, for 5 days, 6 h before chemotherapeutic agent, cycle 9 days)
ineffective: relieving effect on diarrhea ([2]; continuous administration of fluorouracil for 14 days)
